Measured values: patent US9976141B2, “Compositions and methods for inhibiting gene expression of Hif2alpha” (Arrowhead Madison Inc., priority 2015, dated 2018)
Strand notation (5' to 3'): a small letter for the sugar, then the base; units joined by * are phosphorothioate-linked, units joined directly phosphodiester-linked; [ ] holds rarer units or linkages, { } end groups; capitals alone tell only the bases. d = 2'-deoxy (DNA); m = 2'-O-methyl; f = 2'-fluoro

Tested on: human EPAS1 (Hif2α) cDNA in psiCHECK2 (Renilla luciferase/EPAS1 fusion mRNA) in Hep3B cells
Assay: Efficacy screen of Hif2α RNAi triggers in vitro, dual-luciferase reporter assay (1 nM and 0.1 nM)
Assay type: cell-based
Conditions: Hep3B cells co-transfected with EPAS1-psiCHECK2, Renilla luciferase normalized to firefly luciferase
Text: Candidate sequences were identified by in silico analysis and screened as chemically modified canonical siRNAs in vitro. For screening purposes, the human EPAS1 (Hif2α) cDNA sequence (accession #NM 001430) was synthesized and cloned (DNA 2.0, Menlo Park, Calif.) into a commercially-available reporter-based screening plasmid, psiCHECK2 (Promega, Madison, Wis.) which generated a Renilla luciferase/EPAS1 fusion mRNA. For RNAi trigger efficacy evaluation, Hep3B cells, a human hepatocellular carcinoma line, were plated at 10,000 cells per well in 96-well format. Each of the 187 EPAS1 RNAi triggers, in two subsets, was co-transfected at two concentrations, 1 nM and 0.1 nM, with 25 ng EPAS1-psiCHECK2 plasmid DNA per well and 0.2 μL LipoFectamine 2000 (Life Technologies) per well. Gene knockdown was determined by measuring Renilla luciferase levels normalized to the levels of constitutively-expressed firefly luciferase, also present on the psiCHECK-2 plasmid, using the Dual Luciferase Reporter Assay (Promega, Madison, Wis.) Table 5.

Substance | Relative Rluc-Hif2α (0.1 nM RNAi trigger) | Relative Rluc-Hif2α (1 nM RNAi trigger)
2259 (sense fUmCfAmCfCmAfAmCfAmGfAmGfGmCfCmGfUmAfAdT; antisense dTfUmAfCmGfGmCfCmUfCmUfGmUfUmGfGmUfGmAdT*dT; siRNA) [compound 2259] | 0.743 ± 0.086 | 0.836 ± 0.110
2260 (sense fCmAfCmCfAmAfCmAfGmAfGmGfCmCfGmUfAmCfAdT; antisense dTfGmUfAmCfGmGfCmCfUmCfUmGfUmUfGmGfUmGdT*dT; siRNA) [compound 2260] | 0.861 ± 0.031 | 1.030 ± 0.187
2261 (sense fAmGfGmCfCmGfUmAfCmUfGmUfCmAfAmCfCmUfAdT; antisense dTfAmGfGmUfUmGfAmCfAmGfUmAfCmGfGmCfCmUdT*dT; siRNA) [compound 2261] | 0.568 ± 0.065 | 0.657 ± 0.067
2262 (sense fUmCfCmUfCmAfCmAfAmUfAmGfUmCfUmGfUmGfAdT; antisense dTfCmAfCmAfGmAfCmUfAmUfUmGfUmGfAmGfGmAdT*dT; siRNA) [compound 2262] | 0.755 ± 0.031 | 0.277 ± 0.071
2263 (sense fAmAfUmAfGmUfCmUfGmUfGmUfGmGfCmUfAmCfAdT; antisense dTfGmUfAmGfCmCfAmCfAmCfAmGfAmCfUmAfUmUdT*dT; siRNA) [compound 2263] | 1.126 ± 0.083 | 0.875 ± 0.059
2264 (sense fCmAfGmAfAmCfUmGfAmUfUmGfGmUfUmAfCmCfAdT; antisense dTfGmGfUmAfAmCfCmAfAmUfCmAfGmUfUmCfUmGdT*dT; siRNA) [compound 2264] | 0.381 ± 0.023 | 0.183 ± 0.019
2265 (sense fAmGfAmAfCmUfGmAfUmUfGmGfUmUfAmCfCmAfAdT; antisense dTfUmGfGmUfAmAfCmCfAmAfUmCfAmGfUmUfCmUdT*dT; siRNA) [compound 2265] | 0.448 ± 0.042 | 0.186 ± 0.045
2266 (sense fCmUfGmAfUmUfGmGfUmUfAmCfCmAfCmCfCmUfAdT; antisense dTfAmGfGmGfUmGfGmUfAmAfCmCfAmAfUmCfAmGdT*dT; siRNA) [compound 2266] | 0.808 ± 0.062 | 0.368 ± 0.046
2267 (sense fUmUfGmGfCmCfGmCfUmCfAmGfCmCfUmAfUmGfAdT; antisense dTfCmAfUmAfGmGfCmUfGmAfGmCfGmGfCmCfAmAdT*dT; siRNA) [compound 2267] | 1.029 ± 0.104 | 0.651 ± 0.049
2268 (sense fUmAfUmGfAmAfUmUfCmUfAmCfCmAfUmGfCmGfAdT; antisense dTfCmGfCmAfUmGfGmUfAmGfAmAfUmUfCmAfUmAdT*dT; siRNA) [compound 2268] | 0.409 ± 0.023 | 0.210 ± 0.037
2269 (sense fAmUfGmAfAmUfUmCfUmAfCmCfAmUfGmCfGmCfAdT; antisense dTfGmCfGmCfAmUfGmGfUmAfGmAfAmUfUmCfAmUdT*dT; siRNA) [compound 2269] | 0.530 ± 0.097 | 0.302 ± 0.080
2270 (sense fUmGfAmAfUmUfCmUfAmCfCmAfUmGfCmGfCmUfAdT; antisense dTfAmGfCmGfCmAfUmGfGmUfAmGfAmAfUmUfCmAdT*dT; siRNA) [compound 2270] | 0.658 ± 0.149 | 0.613 ± 0.147
2271 (sense fGmAfAmUfUmCfUmAfCmCfAmUfGmCfGmCfUmAfAdT; antisense dTfUmAfGmCfGmCfAmUfGmGfUmAfGmAfAmUfUmCdT*dT; siRNA) [compound 2271] | 1.056 ± 0.291 | 0.930 ± 0.094
2272 (sense fAmAfUmUfCmUfAmCfCmAfUmGfCmGfCmUfAmGfAdT; antisense dTfCmUfAmGfCmGfCmAfUmGfGmUfAmGfAmAfUmUdT*dT; siRNA) [compound 2272] | 1.028 ± 0.281 | 0.864 ± 0.197
2273 (sense fUmCfUmAfCmCfAmUfGmCfGmCfUmAfGmAfCmUfAdT; antisense dTfAmGfUmCfUmAfGmCfGmCfAmUfGmGfUmAfGmAdT*dT; siRNA) [compound 2273] | 0.574 ± 0.033 | 0.588 ± 0.057
2274 (sense fAmUfGmCfGmCfUmAfGmAfCmUfCmCfGmAfGmAfAdT; antisense dTfUmCfUmCfGmGfAmGfUmCfUmAfGmCfGmCfAmUdT*dT; siRNA) [compound 2274] | 0.870 ± 0.108 | 0.506 ± 0.074
2275 (sense fUmGfCmGfCmUfAmGfAmCfUmCfCmGfAmGfAmAfAdT; antisense dTfUmUfCmUfCmGfGmAfGmUfCmUfAmGfCmGfCmAdT*dT; siRNA) [compound 2275] | 0.515 ± 0.264 | 0.464 ± 0.048
2276 (sense fGmUfAmAfGmUfGmGfCmCfAmGfUmAfCmCfGmGfAdT; antisense dTfCmCfGmGfUmAfCmUfGmGfCmCfAmCfUmUfAmCdT*dT; siRNA) [compound 2276] | 0.543 ± 0.029 | 0.330 ± 0.080
2277 (sense fUmAfAmGfUmGfGmCfCmAfGmUfAmCfCmGfGmAfAdT; antisense dTfUmCfCmGfGmUfAmCfUmGfGmCfCmAfCmUfUmAdT*dT; siRNA) [compound 2277] | 0.625 ± 0.384 | 0.702 ± 0.091
2278 (sense fCmCfAmGfUmAfCmCfGmGfAmUfGmCfUmCfGmCfAdT; antisense dTfGmCfGmAfGmCfAmUfCmCfGmGfUmAfCmUfGmGdT*dT; siRNA) [compound 2278] | 0.947 ± 0.044 | 0.564 ± 0.070
2279 (sense fAmGfUmAfCmCfGmGfAmUfGmCfUmCfGmCfAmAfAdT; antisense dTfUmUfGmCfGmAfGmCfAmUfCmCfGmGfUmAfCmUdT*dT; siRNA) [compound 2279] | 0.506 ± 0.086 | 0.280 ± 0.042
2280 (sense fUmAfCmCfGmGfAmUfGmCfUmCfGmCfAmAfAmGfAdT; antisense dTfCmUfUmUfGmCfGmAfGmCfAmUfCmCfGmGfUmAdT*dT; siRNA) [compound 2280] | 0.871 ± 0.147 | 0.911 ± 0.086
2281 (sense fUmGfCmUfCmGfCmAfAmAfGmCfAmUfGmGfGmGfAdT; antisense dTfCmCfCmCfAmUfGmCfUmUfUmGfCmGfAmGfCmAdT*dT; siRNA) [compound 2281] | 0.914 ± 0.177 | 0.651 ± 0.041
2282 (sense fCmGfCmAfAmAfGmCfAmUfGmGfGmGfGmCfUmAfAdT; antisense dTfUmAfGmCfCmCfCmCfAmUfGmCfUmUfUmGfCmGdT*dT; siRNA) [compound 2282] | 1.209 ± 0.132 | 0.824 ± 0.155
2283 (sense fAmGfCmAfUmGfGmGfGmGfCmUfAmCfGmUfGmUfAdT; antisense dTfAmCfAmCfGmUfAmGfCmCfCmCfCmAfUmGfCmUdT*dT; siRNA) [compound 2283] | 1.175 ± 0.194 | 0.882 ± 0.026
2284 (sense fGmCfAmUfGmGfGmGfGmCfUmAfCmGfUmGfUmGfAdT; antisense dTfCmAfCmAfCmGfUmAfGmCfCmCfCmCfAmUfGmCdT*dT; siRNA) [compound 2284] | 1.227 ± 0.266 | 0.787 ± 0.062
